Data as given in patent US20090124622A1, “Medicament Containing a Thiazole Derivative as an Active Ingredient” (priority 2006, published 2009).

Assays:
[1] = system: mast cells derived from murine bone marrow; assay: Cys-LT release from antigen-stimulated murine bone marrow-derived mast cells; type: cell-based, mouse; conditions: DNP-HSA 10 ng/ml; IgE-sensitized mast cells
Description: (§1) According to almost the same method as the method by Razin et al. (J. Immunol. 132, 1479-1486 (1984)), murine bone marrow cells were differentiated into mast cells. Namely, bone marrow cells from femur of a female BALB/c mouse (purchased from Charles River Japan) were collected, and cultured in RPMI 1640 culture medium, containing 10% […] FBS prepared by Invitrogen, and 50% WEHI-3 cell culture supernatant. After culture for more than three weeks and confirming differentiation into mast cells under microscope, the cells were subjected to the following experiments.
(§2) Mast cells were suspended in the concentration of 2×10^6 cell/ml, and thereto was added 0.1 μg/ml anti-mouse DNP-Age antibody (SPE7, by Sigma-Aldrich). The cell suspension was incubated overnight in a CO2 incubator (5% CO2, 37° C.), and passively sensitized. […] After terminating the reaction by putting the plate on ice, histamine concentration of the supernatant was measured. […]
This experiment was conducted in the almost same method as the experiment of histamine release except that the final concentration of antigen (DNP-HSA) was 10 ng/ml. The concentration of […] in supernatant was measured by using Cysteinyl-Leukotriene EIA Kit (by Cayman Chemical).

[2] = system: guinea pig rhinitis model; assay: Inflammatory mediators (TNF, LTE4) in nasal cavity lavage fluid of guinea pig rhinitis model; type: in vivo; conditions: 8 hours after antigen nasal challenge
Description: Eight hours after antigen nasal challenge, by intraperitoneally administering pentobarbital sodium (Nembutal (reg. trade name), by Dainippon Sumitomo Pharma) 30 mg/body weight (kg) to anesthetize, the animal was fixed at the back. Opening bronchial, a cannula was inserted into a lung site to continue breath, and fixed by knotting. After stopping the channel of oral cavity and nasal cavity, from a part of opened bronchia to a side of nasal cavity a cannula was inserted, and knotted, and to the cannula was connected syringe pump. A saline solution was refluxed in the nasal cavity at flow speed (1 ml/minute) for 10 minutes, and the refluxed solution was recovered to get nasal cavity lavage fluid, NCLF). NCLF was centrifuged (1710.5×g (3000 rpm), 4° C., 10 minutes), and the supernatant was freezed at −80° C., and subjected to experiment of Example 5.
The supernatant of NCLF obtained in Example 4 was freezed at −80° C. and preserved. After thawing the sample, the concentration of LTE4 was measured by immuno assay kit (Leukotriene E4 EIA kit, by Cayman Chemical). The concentration of TNF was measured by bioassay method using L929 cells (from Dainippon Sumitomo Pharma) (David H., et al., J. Allergy Clin. Immunol. 89, 958-967 (1992)). Using recombinant human TNF-α (by PeproTech) as a standard, the result was shown by potency of human TNF-α cytotoxicity.

[3] = system: guinea pig delayed asthma model; assay: Guinea pig delayed asthma model; type: in vivo; conditions: Cavia porcellus, oral, 1 hour before OVA inhalation, read-out: ED50 (inhibition of delayed asthma reaction, AUC4-8hr of % sRaw/TV)
Description: Hartley male guinea pigs were purchased from SLC, and after quarantining them for 1 week, at the week when the qualantine was finished the first sensitization was carried out by antigen exposure. By using ultrasonic nebulizer (OMRON NE-U12, condition: Vapor amount: maximum, Air: small) 2% (w/v) ovalbumin (OVA, by Sigma-Aldrich) in saline solution was vaporized, and by disposing for 10 minutes, they were first sensitized. At sensitizing, the guinea pigs were fixed on a body holder cartridge for them (by M.I.P.S.), and they were set on disposal chamber holder for 8 guinea pigs (by M.I.P.S.). Additional sensitization was carried out 7 days after the first sensitization as well. […] Breath function was measured by a general breath function measurement system (by M.I.P.S.) using Double flow plestymograph method (Penny A. Hutson et al. Am Rev Respir Dis 1988 137, 548-557). The breath function was measured before reaction induction (pre-value), 5 minutes, 1, 2, 3, 4, 5, 6, 7, and 8 hours after completion of reaction induction. By using one of parameters, sRaw/TV (specific airway resistance/once breath) as an index of improvement of respiratory function, variation rate per individual of sRaw/TV (% sRaw/TV) against pre-value between each measured times was calculated. Plotting % sRaw/TV with time, Area Under the Curve (AUC4-8hr) from 4 hours to 8 hours after reaction induction was calculated. […]

[4] = system: mast cells derived from murine bone marrow; assay: Cytokine (TNF-α, IL-13) release from antigen-stimulated murine bone marrow-derived mast cells; type: cell-based, mouse; conditions: DNP-HSA 3 ng/ml, 4 hours
Description: as §1, §2
This experiment was conducted in almost the same method as the experiment on histamine release except that the final concentration of antigen (DNP-HSA) was 3 ng/ml, and reaction hours after addition of the antigen were 4 hours. The concentrations of TNF-α, and IL-13 in the supernatant were measured by using Enzyme-linked immunoassay kit (Quantikine (reg. trademark) Mouse TNF-α/TNFSF1A and IL-13 Immunoassay, by R&D systems).

guinea pig eosinophiles = assay: Release of prostaglandin D2 and thromboxane B2 from PAF-induced guinea pig eosinophiles; type: cell-based; conditions: PAF C-16 10^-7M, 10 minutes
Description: In accordance with almost the same as the method of Sugasawa et al. (Agents and Actions 37, 233-237 (1992)), eosinophiles were separated and purified from abdominal of a male Hartley guinea pig (from SLC) and the cell concentration was adjusted to 1.25×10^7 cell/ml with modified hanks solution. The cell suspension (80 μl) were added to a 96-well culture plate (by Asahi-techno-glass Co. Ltd.), and then a test sample in DMSO solution or 2.5% DMSO solution only (10 μl) was added. After the plate was preincubated in a CO2 gas incubator for 10 minutes (5% CO2, at 37° C.), thereto was added Platelet Activating Factor (PAF C-16, by Cayman Chemical) 10 μl (final concentration of PAF C-16: 10−7M), and the mixture was further incubated in a CO2 gas incubator for 10 minutes. The concentrations of thromboxane B2 and prostaglandin in the supernatant were measured by using immunoassay kit (Thromboxane B2 EIA kit, Prostaglandin D2-MOX EIA kit, by Cayman Chemical).

[5] = system: guinea pig rhinitis model; assay: Nasal cavity resistance change (sRaw) in guinea pig rhinitis model; type: in vivo; conditions: oral
Description: Referring to the report (74th Japanese Pharmacological Society (2001), Abstract number P-258, Establishment delayed rhinitis model by a guinea pig and effect of polysulfonic acidified hyaluronic acid, Masaki Matsudo, Junichi Fuchigami et al.), the following evaluation was conducted.
A saline solution (1 ml) containing OVA (50 mg) and aluminum hydroxide gel (1 mg) (by PIERCE) was percuteneously administered to a male Hartley guinea pig (from Kyudo Co. Ltd.) on back collum to make active sensitization.
SMP-028 was orally administered for 15 days starting from sensitization once a day (5 ml/body weight (kg)). The drug was orally administered before 1 hour on the sensitized day or on the antibody-challenged day. To saline solution challenged group (saline group) and control group was orally administered 0.5% MC as well. To dexamethasone group (dex. group) was orally administered the drug before 16 hours and 2 hours of antibody challenge. […]
By using a general respiratory function analysis system (PULMOS-I, by M.I.P.S), nasal cavity resistance of guinea big under palinesthesia was measured in accordance with the method of Double flow plestymograph. Because antibody challenge region was restricted to nose part, sRaw which was analyzed by computer and outputted (specific airway resistance) was served as an index of nasal cavity resistance. Before antibody nasal challenge, 10 minutes, 2, 3, 4, 5, 6 and 7 hours after the challenge, each sRaw per animal was once measured, and average of 100 breathes was made sRaw at each measured time. From the sRaw value by using analysis soft on a general respiratory function analysis system (WinPUL13 ver. 1.21) and using the calculation formula (sRaw increased rate (%) during each measuring times=100×(sRaw−sRaw before challenge during each measuring times)/sRaw before challenge), sRaw change rate was calculated. […] AUC3-7hr was calculated by trapezoid (echelon) method. Furthermore, from IAR and LAR in medium control group and each test group, inhibiting rate (%) on each test group against medium control group was calculated.

[6] = system: mast cells derived from murine bone marrow; assay: Histamine release from antigen-stimulated murine bone marrow-derived mast cells; type: cell-based, mouse; conditions: DNP-HSA 100 ng/ml, 20 minutes; IgE-sensitized mast cells
Description: as §1
Mast cells were suspended in the concentration of 2×10^6 cell/ml, and thereto was added 0.1 μg/ml anti-mouse DNP-Age antibody (SPE7, by Sigma-Aldrich). The cell suspension was incubated overnight in a CO2 incubator (5% CO2, 37° C.), and passively sensitized. […] The cell suspension (80 μl) were added to a 96-well culture plate (by Asahi-techno-glass Co. Ltd.), and then a test sample in DMSO solution or 2.5% DMSO solution only (10 μl) was added. After the plate was reinsulated in a CO2 incubator for 10 minutes, to stimulate, 10 μl of 1 μg/ml of antibody (DNP-HSA, by Sigma-Aldrich, final concentration of antigen 100 ng/ml) was added to each well. […] After terminating the reaction by putting the plate on ice, histamine concentration of the supernatant was measured. […]

[7] = once a day for 15 days, OVA nasal challenge

Structure (SMILES) | release of Cys-LT from mast cells [1] | production of LTE4 in nasal cavity (NCLF) ([2]; EIA) | production of TNF in nasal cavity (NCLF) ([2]; L929 bioassay) | ED50 [3] [mg/kg] | release of IL-13 from mast cells [4] | release of TNF-α from mast cells [4] | release of prostaglandin D2 from eosinophiles (guinea pig eosinophiles) | release of thromboxane B2 from eosinophiles (guinea pig eosinophiles) | efficacy on immediate and delayed nasal congestion reaction compared with dexamethasone ([5]; 30 mg/kg) | delayed nasal congestion reaction (LAR, AUC3-7hr of sRaw increased rate) [5, 7] | immediate nasal congestion reaction (IAR, sRaw increased rate 10 minutes after challenge) [5, 7] | release of histamine from mast cells [6]
CNC(=O)NCCn1c(-c2ccc(N3CCOCC3)cc2)csc1=Nc1cccc(F)c1 [SMP-028, N-{2-[2-[(3-Fluorophenyl)imino]-4-(4-morpholin-4-ylphenyl)-1,3-thiazol-3(2H)-yl]ethyl}-N′-methylurea] | inhibited | showed a tendency and activity of inhibition | showed a tendency and activity of inhibition | 0.44 | inhibited | inhibited | concentration-dependently inhibited | concentration-dependently inhibited | efficacy comparative to dexamethasone | dose-dependently inhibited | dose-dependently inhibited | inhibited
CNC(=O)NCCn1c(-c2ccc(N3CCOCC3)cc2)csc1=Nc1ccc(F)cc1 [Compound 2, reference compound] | – | – | – | 0.69 | – | – | – | – | – | – | – | –
